Patent US12612409B2, “Pyrrolopyrimidines as CFTR potentiators” (Cystic Fibrosis Foundation, priority 2016, dated 2026)

Legend:
[1] = target: T1, recombinant F508del V470 CFTR in Fischer rat thyroid (FRT) cells (Homo sapiens, UniProt P13569, DEL508-508); test: FRT ion flux assay of F508del CFTR potentiation; type: cell-based; conditions: FRT cells expressing F508del V470 CFTR, forskolin 20 uM, 27° C. pre-incubation
T1 construct: expressed in transfected cells
Method in brief: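 Potentiation read as YFP quench ~21 s after iodide buffer addition, as second/initial fluorescence ratio normalised between DMSO (0%) and reference potentiator (100%).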

[2] = target: T2, CFTR in F508del/F508del primary CF hBE cells (Homo sapiens, UniProt P13569, DEL508-508); test: Ussing chamber electrophysiology assay of CFTR potentiation in F508del/F508del CF bronchial epithelial cells (27° C.); type: cell-based
T2 construct: Primary cystic fibrosis human bronchial epithelial (CF hBE) cells were expanded and cultured; endogenous in cells; host or cells: primary CF human bronchial epithelial cells, genotype F508del/F508del
Method in brief: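 Short-circuit current was recorded under zero-voltage clamp across primary CF bronchial epithelia cultured >30 days at air/liquid interface, bathed apically and basolaterally in HEPES-buffered saline. Sequential additions: amiloride (30 uM), forskolin (10 uM), compound at 4 increasing levels, CFTRinh-172 (20 uM). Responses normalised between DMSO (0%) and maximal positive-control potentiator (100%).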

T1 sequence (P13569 with tags, fused parts or gaps DEL508-508): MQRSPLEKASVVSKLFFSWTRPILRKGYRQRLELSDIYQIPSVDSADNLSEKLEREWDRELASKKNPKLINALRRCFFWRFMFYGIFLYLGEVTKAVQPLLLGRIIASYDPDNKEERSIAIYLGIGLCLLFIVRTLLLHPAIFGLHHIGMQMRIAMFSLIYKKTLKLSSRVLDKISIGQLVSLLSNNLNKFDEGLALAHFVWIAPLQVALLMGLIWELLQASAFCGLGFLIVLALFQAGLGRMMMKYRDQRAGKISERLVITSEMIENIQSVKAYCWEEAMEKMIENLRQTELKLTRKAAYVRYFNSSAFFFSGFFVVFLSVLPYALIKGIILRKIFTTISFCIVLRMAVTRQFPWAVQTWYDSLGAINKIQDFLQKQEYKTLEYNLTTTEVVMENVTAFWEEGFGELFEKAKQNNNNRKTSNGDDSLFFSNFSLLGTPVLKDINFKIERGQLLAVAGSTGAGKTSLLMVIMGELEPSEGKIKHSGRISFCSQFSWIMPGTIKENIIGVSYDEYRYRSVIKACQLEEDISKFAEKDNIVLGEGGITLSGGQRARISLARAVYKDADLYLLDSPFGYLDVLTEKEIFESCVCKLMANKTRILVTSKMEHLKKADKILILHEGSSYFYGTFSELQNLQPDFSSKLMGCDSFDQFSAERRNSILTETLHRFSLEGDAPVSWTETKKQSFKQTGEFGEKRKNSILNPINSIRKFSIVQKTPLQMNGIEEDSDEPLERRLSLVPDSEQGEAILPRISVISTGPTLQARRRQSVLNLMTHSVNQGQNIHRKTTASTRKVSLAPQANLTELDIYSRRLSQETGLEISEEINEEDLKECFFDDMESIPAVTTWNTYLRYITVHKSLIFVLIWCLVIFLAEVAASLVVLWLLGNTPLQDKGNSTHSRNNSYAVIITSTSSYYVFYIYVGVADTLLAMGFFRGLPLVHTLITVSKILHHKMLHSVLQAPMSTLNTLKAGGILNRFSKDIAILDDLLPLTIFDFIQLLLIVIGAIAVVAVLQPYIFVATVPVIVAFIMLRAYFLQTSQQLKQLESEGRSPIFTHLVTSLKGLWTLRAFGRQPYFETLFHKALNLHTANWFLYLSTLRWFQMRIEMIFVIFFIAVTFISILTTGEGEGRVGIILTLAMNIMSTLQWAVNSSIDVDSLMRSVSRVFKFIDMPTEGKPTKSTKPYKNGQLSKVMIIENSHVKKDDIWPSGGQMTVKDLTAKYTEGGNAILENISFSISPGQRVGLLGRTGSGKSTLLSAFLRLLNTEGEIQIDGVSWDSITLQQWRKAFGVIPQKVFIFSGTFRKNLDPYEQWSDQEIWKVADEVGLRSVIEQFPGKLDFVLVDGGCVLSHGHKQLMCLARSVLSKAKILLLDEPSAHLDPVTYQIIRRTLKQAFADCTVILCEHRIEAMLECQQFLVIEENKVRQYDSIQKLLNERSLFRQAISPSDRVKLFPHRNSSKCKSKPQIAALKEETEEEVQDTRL
T2 sequence (P13569 with tags, fused parts or gaps DEL508-508): as above

Row | Structure (SMILES) | EC50 [1] | EC50 [2]
1 | CCC(c1cn(-c2ccccc2)nn1)n1cc(-c2ccc(OC)nc2)c2c(N)ncnc21 (single isomer, unassigned; enantiomer 1) [Example 125, 5-(6-Methoxypyridin-3-yl)-7-[1-(1-phenyl-1H-1,2,3-triazol-4-yl)propyl]-7H-pyrrolo[2,3-d]pyrimidin-4-amine, enantiomer 1] | 395 nM | 199 nM
2 | CCC(c1cn(-c2ccccc2)nn1)n1cc(-c2cnc(C(F)(F)F)nc2)c2c(N)ncnc21 (single isomer, unassigned; enantiomer 2) [Example 130, 7-[1-(1-Phenyl-1H-1,2,3-triazol-4-yl)propyl]-5-[2-(trifluoromethyl)pyrimidin-5-yl]-7H-pyrrolo[2,3-d]pyrimidin-4-amine, enantiomer 2] | 234 nM | 187 nM
3 | CC(c1cn(-c2ccccc2F)nn1)n1cc(-c2ccc(OC3CC3)cc2)c2c(N)ncnc21 (single isomer, unassigned; enantiomer 1) [Example 117, (+) 5-[4-(Cyclopropyloxy)phenyl]-7-{1-[1-(2-fluorophenyl)-1H-1,2,3-triazol-4-yl]ethyl}-7H-pyrrolo[2,3-d]pyrimidin-4-amine, enantiomer 1] | 58.8 nM | 49.3 nM
4 | CC(c1cn(-c2ccccc2F)nn1)n1cc(-c2ccc(Cl)cc2)c2c(N)ncnc21 (single isomer, unassigned) [Example 112] | 68.6 nM | 17.5 nM
5 | CCOc1ccc(-c2cn(Cc3cn(-c4ccccc4F)nn3)c3ncnc(N)c23)cc1F [Example 75, 5-(4-Ethoxy-3-fluorophenyl)-7-{[1-(2-fluorophenyl)-1H-1,2,3-triazol-4-yl]methyl}-7H-pyrrolo[2,3-d]pyrimidin-4-amine] | 99.6 nM | 38 nM
6 | CCC(c1cn(-c2ccc(F)c(F)c2)nn1)n1cc(-c2cncnc2OC)c2c(N)ncnc21 (single isomer, unassigned; enantiomer 1) [Example 151, (+) 7-{1-[1-(3,4-Difluorophenyl)-1H-1,2,3-triazol-4-yl]propyl}-5-(4-methoxypyrimidin-5-yl)-7H-pyrrolo[2,3-d]pyrimidin-4-amine, enantiomer 1] | 34.1 nM | 35.5 nM
7 | COc1ncncc1-c1cn(C(c2cn(-c3ccccc3F)nn2)C2COC2)c2ncnc(N)c12 (centres unmarked) [Example 315, 7-{[1-(2-Fluorophenyl)-1H-1,2,3-triazol-4-yl](oxetan-3-yl)methyl}-5-(4-methoxypyrimidin-5-yl)-7H-pyrrolo[2,3-d]pyrimidin-4-amine] | 933 nM | 2930 nM
8 | CCC(c1cn(-c2ccccc2)nn1)n1cc(-c2cnc(C(F)(F)F)nc2)c2c(N)ncnc21 (single isomer, unassigned; enantiomer 1) [Example 129, 7-[1-(1-Phenyl-1H-1,2,3-triazol-4-yl)propyl]-5-[2-(trifluoromethyl)pyrimidin-5-yl]-7H-pyrrolo[2,3-d]pyrimidin-4-amine, enantiomer 1] | 8.46 nM | 10.7 nM

Continued, values first:

Row | EC50 [1] | EC50 [2] | Structure (SMILES)
9 | 468 nM | 446 nM | CC(c1cc(-c2ccccc2F)no1)n1cc(-c2ccc(Cl)cc2)c2c(N)ncnc21 (single isomer, unassigned; enantiomer 2) [Example 182, (−)-5-(4-Chlorophenyl)-7-{1-[3-(2-fluorophenyl)-1,2-oxazol-5-yl]ethyl}-7H-pyrrolo[2,3-d]pyrimidin-4-amine, enantiomer 2]
10 | 12.2 nM | 27.7 nM | COc1nc(C(F)(F)F)ncc1-c1cn(C(C)c2cn(-c3ccccc3F)nn2)c2ncnc(N)c12 (centres unmarked) [Example 249, 7-{1-[1-(2-Fluorophenyl)-1H-1,2,3-triazol-4-yl]ethyl}-5-[4-methoxy-2-(trifluoromethyl)pyrimidin-5-yl]-7H-pyrrolo[2,3-d]pyrimidin-4-amine]
11 | 110 nM | 30.6 nM | CC(c1cnc(-c2ccccc2F)[nH]1)n1cc(-c2ccc(-n3nccn3)cc2)c2c(N)ncnc21 (centres unmarked) [Example 70, 7-{1-[2-(2-Fluorophenyl)-1H-imidazol-5-yl]ethyl}-5-[4-(2H-1,2,3-triazol-2-yl)phenyl]-7H-pyrrolo[2,3-d]pyrimidin-4-amine]
12 | 289 nM | 38.3 nM | Cc1c(-c2ccc(Cl)cc2)c2c(N)ncnc2n1C(C)c1cn(-c2ccccc2F)nn1 (centres unmarked) [Example 257, 5-(4-Chlorophenyl)-7-{1-[1-(2-fluorophenyl)-1H-1,2,3-triazol-4-yl]ethyl}-6-methyl-7H-pyrrolo[2,3-d]pyrimidin-4-amine]
13 | 433 nM | 239 nM | CCC(c1cn(-c2ccc(F)c(F)c2)nn1)n1cc(-c2cnc(OC)c(F)c2)c2c(N)ncnc21 (single isomer, unassigned; enantiomer 1) [Example 157, 7-{1-[1-(3,4-Difluorophenyl)-1H-1,2,3-triazol-4-yl]propyl}-5-(5-fluoro-6-methoxypyridin-3-yl)-7H-pyrrolo[2,3-d]pyrimidin-4-amine, enantiomer 1]
14 | 102 nM | 55 nM | COc1ccc(-c2cn(C(C)c3cn(-c4ccccc4F)nn3)c3ncnc(N)c23)c(OC)c1 (centres unmarked) [Example 87, 5-(2,4-Dimethoxyphenyl)-7-{1-[1-(2-fluorophenyl)-1H-1,2,3-triazol-4-yl]ethyl}-7H-pyrrolo[2,3-d]pyrimidin-4-amine]
15 | 23.6 nM | 13 nM | COc1ncc(-c2c(C#N)n(C(C)c3cc(-c4ccccc4F)no3)c3ncnc(N)c23)cn1 (single isomer, unassigned) [Example 14, 4-amino-7-{1-[3-(2-fluorophenyl)-1,2-oxazol-5-yl]ethyl}-5-(2-methoxypyrimidin-5-yl)-7H-pyrrolo[2,3-d]pyrimidine-6-carbonitrile]
16 | 7.22 nM | 7 nM | COc1ncc(-c2c(C#N)n(C(C)c3cc(-c4ccccc4F)no3)c3ncnc(N)c23)cn1 (single isomer, unassigned) [Example 15, 4-amino-7-{1-[3-(2-fluorophenyl)-1,2-oxazol-5-yl]ethyl}-5-(2-methoxypyrimidin-5-yl)-7H-pyrrolo[2,3-d]pyrimidine-6-carbonitrile]
17 | 7.69 nM | 7.73 nM | CC(c1cnn(-c2ccccc2F)c1)n1c(C#N)c(-c2cnc(C(F)(F)F)nc2)c2c(N)ncnc21 (single isomer, unassigned) [Example 5, 4-Amino-7-(1-(1-(2-fluorophenyl)-1H-pyrazol-4-yl)ethyl)-5-(2-(trifluoromethyl)pyrimidin-5-yl)-7H-pyrrolo[2,3-d] pyrimidine-6-carbonitrile]
18 | 63.6 nM | 25.3 nM | COc1ncc(F)cc1-c1cn(Cc2cn(-c3ccccc3F)nn2)c2ncnc(N)c12 [Example 195, 5-(5-Fluoro-2-methoxypyridin-3-yl)-7-{[1-(2-fluorophenyl)-1H-1,2,3-triazol-4-yl]methyl}-7H-pyrrolo[2,3-d]pyrimidin-4-amine]
19 | 41.8 nM | 32.5 nM | CCC(c1cn(-c2ccccc2F)nn1)n1c(C#N)c(-c2cnc(C(F)(F)F)nc2)c2c(N)ncnc21 (single isomer, unassigned) [Example 23, 4-Amino-7-{1-[1-(2-fluorophenyl)-1H-1,2,3-triazol-4-yl]propyl}-5-[2-(trifluoromethyl)pyrimidin-5-yl]-7H-pyrrolo[2,3-d]pyrimidine-6-carbonitrile]
